Reference: US10626081B2, “Farnesoid X receptor agonists and uses thereof” (Metacrine, Inc., priority 2015, dated 2020)
pEC50: −log10 of the molar value.

The compounds below were run against T1, FXR (Homo sapiens, UniProt Q96RI1) (assay: In Vitro FXR Assay (TK): TK-ECRE-luc reporter in transfected CV-1 cells). Settings: CV-1 cells transfected with hFXR, hRXR, 18 h incubation, luminescence.
T1 construct: expressed in transfected cells; host or cells: CV-1 cells
T1 sequence (Q96RI1 1-486): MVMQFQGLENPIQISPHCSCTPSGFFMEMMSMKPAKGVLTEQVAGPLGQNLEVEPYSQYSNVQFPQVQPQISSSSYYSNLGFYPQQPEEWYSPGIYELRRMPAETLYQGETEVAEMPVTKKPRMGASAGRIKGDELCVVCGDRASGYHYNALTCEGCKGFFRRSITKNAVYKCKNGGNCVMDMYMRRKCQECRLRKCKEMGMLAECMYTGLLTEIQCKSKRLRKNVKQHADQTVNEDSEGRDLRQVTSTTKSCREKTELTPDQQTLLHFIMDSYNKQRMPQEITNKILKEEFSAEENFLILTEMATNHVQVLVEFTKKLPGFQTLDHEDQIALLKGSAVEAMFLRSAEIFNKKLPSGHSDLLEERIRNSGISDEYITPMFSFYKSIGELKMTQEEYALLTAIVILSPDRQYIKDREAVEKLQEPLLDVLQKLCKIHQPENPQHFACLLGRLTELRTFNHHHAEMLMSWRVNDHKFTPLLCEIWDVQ
T1 sequence (P19793 1-462 partner): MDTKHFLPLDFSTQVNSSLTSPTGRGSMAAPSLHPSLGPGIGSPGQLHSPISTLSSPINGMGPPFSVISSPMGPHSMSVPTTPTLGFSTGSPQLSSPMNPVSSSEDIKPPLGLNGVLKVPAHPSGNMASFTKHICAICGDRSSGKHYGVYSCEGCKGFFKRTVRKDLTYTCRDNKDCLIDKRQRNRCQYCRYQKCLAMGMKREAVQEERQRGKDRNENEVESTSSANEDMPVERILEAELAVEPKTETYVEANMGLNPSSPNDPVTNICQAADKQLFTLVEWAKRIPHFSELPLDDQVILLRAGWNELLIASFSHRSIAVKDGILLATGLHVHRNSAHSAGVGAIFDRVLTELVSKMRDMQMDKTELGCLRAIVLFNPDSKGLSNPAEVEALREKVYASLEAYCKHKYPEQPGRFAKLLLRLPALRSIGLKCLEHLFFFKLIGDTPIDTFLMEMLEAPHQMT
Type: cell-based
Protocol: Example B-2: In Vitro FXR Assay (TK)
CV-1 cells were seeded at a density of 2,000,000 cells in a T175 flask with DMEM+10% charcoal double-stripped FBS and incubated at 37° C. in 5% CO2 for 18 h (O/N).
After 18 h of incubation, the medium in the T175 flask was changed with fresh DMEM+10% charcoal super-stripped serum. In a polypropylene tube, 2500 μL OptiMEM (Life Technologies, Cat #31985-062) was combined with expression plasmids for hFXR, hRXR, TK-ECRE-luc and pCMX-YFP. The tube was then briefly vortexed and incubated at room temperature for 5 minutes. Transfection reagent (X-tremeGENE HP from Roche, Cat #06 366 236 001) was added to the OptiMEM/plasmid mixture vortexed and incubated at room temperature for 20 minutes. Following incubation, the transfection reagent/DNA mixture complex was added to cells in the T175 flask and the cells were incubated at 37° C. in 5% CO2 for 18 h (O/N).
Compounds were serially diluted in DMSO and added to transfected CV-1 cells. The cells were then incubated for 18 hrs. The next day cells were lysed and examined for luminescence.

Row | pEC50 | Structure (SMILES)
1 | 5.00 to 6.00 | COC(=O)/C=C/c1cccc(N(Cc2ccc(-c3ccc(N(C)C)cc3)cc2)C(=O)c2ccc(OCCN3CCOCC3)cc2)c1 [13.12, (E)-Methyl 3-(3-(N-((4′-(dimethylamino)-[1,1′-biphenyl]-4-yl)methyl)-4-(2-morpholinoethoxy)benzamido)phenyl)acrylate]
2 | < 5.00 | COC(=O)/C=C/c1cccc(N(Cc2ccc(-c3ccc(OC)c(C)c3)cc2)C(=O)C2CCNCC2)c1 [62.15, (E)-Methyl 3-(3-(N-((4′-methoxy-3′-methyl-[1,1′-biphenyl]-4-yl)methyl)piperidine-4-carboxamido)phenyl)acrylate]
3 | ≥ 6.00 | COC(=O)/C=C/c1cccc(N(Cc2ccc(-c3cnc(N(C)C)nc3)cc2)C(=O)C2CCCCC2)c1 [75.3, (E)-Methyl 3-(3-(N-(4-(2-(dimethylamino)pyrimidin-5-yl)benzyl)cyclohexanecarboxamido)phenyl) acrylate]
4 | 5.00 to 6.00 | COC(=O)/C=C/c1cc(OC)cc(N(Cc2ccc(-c3ccc(N(C)C)cc3)cc2)C(=O)C2CCCCC2)c1 [86.8, (E)-Methyl 3-(3-(N-((4′-(dimethylamino)-[1,1′-biphenyl]-4-yl)methyl)cyclohexanecarboxamido)-5-methoxyphenyl)acrylate]
5 | 5.00 to 6.00 | CCc1cc(CN(C(=O)C2CCCCC2)c2cccc(/C=C/C(=O)OC)c2)ccc1-c1ccc(N(C)C)cc1 [62.13, (E)-Methyl 3-(3-(N-((4′-(dimethylamino)-2-ethyl-[1,1′-biphenyl]-4-yl)methyl)cyclohexanecarboxamido)phenyl) acrylate]
6 | < 5.00 | COC(=O)/C=C/c1cccc(N(Cc2ccc(-c3cccc(S(C)(=O)=O)c3)cc2)C(=O)C2CCCCC2)c1 [62.8, (E)-Methyl 3-(3-(N-((3′-(methylsulfonyl)-[1,1′-biphenyl]-4-yl)methyl)cyclohexanecarboxamido)phenyl) acrylate]
7 | ≥ 6.00 | COC(=O)/C=C/c1cccc(N(Cc2ccc(-c3ccc(N(C)C)cc3)cc2)C(=O)C2CCCCO2)c1 (stereo not shown) [17.1, (E)-Methyl 3-(3-(N-((4′-(dimethylamino)-[1,1′-biphenyl]-4-yl)methyl)tetrahydro-2H-pyran-2-carboxamido)phenyl)acrylate]
8 | 5.00 to 6.00 | COC(=O)/C=C/c1cccc(N(Cc2ccc(-c3ccc(N(C)C)cc3)cc2)C(=O)C2CCNC(=O)C2)c1 (stereo not shown) [13.18, (E)-Methyl 3-(3-(N-((4′-(dimethylamino)-[1,1′-biphenyl]-4-yl)methyl)-2-oxopiperidine-4-carboxamido)phenyl)acrylate]
9 | ≥ 6.00 | COC(=O)/C=C/c1cccc(N(Cc2ccc(-c3ccc4scnc4c3)cc2)C(=O)C2CCCCC2)c1 [75.14, (E)-Methyl 3-(3-(N-(4-(benzo[d]thiazol-5-yl)benzyl)cyclohexanecarboxamido)phenyl) acrylate]
10 | < 5.00 | CC(C)COC(=O)/C=C/c1cccc(N(Cc2ccc(-c3ccc(N(C)C)cc3)cc2)C(=O)C2CCCCC2)c1 [86.2, (E)-Isobutyl 3-(3-(N-((4′-(dimethylamino)-[1,1′-biphenyl]-4-yl)methyl)cyclohexanecarboxamido)phenyl) acrylate]
11 | < 5.00 | CN(C)CCOC(=O)/C=C/c1cccc(N(Cc2ccc(-c3ccc(N(C)C)cc3)cc2)C(=O)C2CCCCC2)c1 [86.4, (E)-2-(Dimethylamino)ethyl 3-(3-(N-((4′-(dimethylamino)-[1,1′-biphenyl]-4-yl)methyl)cyclohexanecarboxamido)phenyl) acrylate]
12 | 5.00 to 6.00 | COC(=O)/C=C/c1cccc(N(Cc2ccc(-c3ccc(C(=O)OC)cc3)cc2)C(=O)C2CCCCC2)c1 [62.3, (E)-Methyl 4′-((N-(3-(3-methoxy-3-oxoprop-1-en-1-yl)phenyl)cyclohexanecarboxamido)methyl)-[1,1′-biphenyl]-4-carboxylate]
13 | 5.00 to 6.00 | COC(=O)/C=C/c1cccc(N(Cc2ccc(-c3ccc(N(C)C)cc3)cc2)C(=O)C2(C)CCCCC2)c1 [13.3, (E)-Methyl 3-(3-(N-((4′-(dimethylamino)-[1,1′-biphenyl]-4-yl)methyl)-1-methylcyclohexane-carboxamido)phenyl)acrylate]
14 | ≥ 6.00 | COC(=O)/C=C/c1cc(F)cc(N(Cc2ccc(-c3ccc(N(C)C)cc3)cc2)C(=O)C2CCCCC2)c1 [13.4, (E)-Methyl 3-(3-(N-((4′-(dimethylamino)-[1,1′-biphenyl]-4-yl)methyl)cyclohexanecarboxamido)-5-fluorophenyl)acrylate]
15 | 5.00 to 6.00 | COC(=O)/C=C/c1cccc(N(Cc2ccc(-c3ccc(N(C)C)cc3)cc2)C(=O)c2ccc(F)cc2)c1 [13.2, (E)-Methyl 3-(3-(N-((4′-(dimethylamino)-[1,1′-biphenyl]-4-yl)methyl)-4-fluorobenzamido)phenyl)acrylate]
16 | 5.00 to 6.00 | COC(=O)/C=C/c1cccc(N(Cc2ccc(-c3ccc(N(C)C)cc3)cc2)C(=O)[C@@H]2CCCC[C@@H]2O)c1 (relative stereo) [13.26, cis-(E)-Methyl 3-(3-(N-((4′-(dimethylamino)-[1,1′-biphenyl]-4-yl)methyl)-2-hydroxycyclohexanecarboxamido)phenyl)acrylate]
17 | ≥ 6.00 | COC(=O)/C=C/c1cccc(N(Cc2ccc(-c3ccc(N(C)C)cc3)cc2)C(=O)C(C)(C)CCl)c1 [13.24, (E)-Methyl 3-(3-(3-chloro-N-((4′-(dimethylamino)-[1,1′-biphenyl]-4-yl)methyl)-2,2-dimethylpropanamido)phenyl)acrylate]
18 | 5.00 to 6.00 | COC(=O)/C=C/c1cccc(N(Cc2ccc(-c3ccc(OC)c(C)c3)cc2)C(=O)C2CCN(S(C)(=O)=O)CC2)c1 [62.17, (E)-Methyl 3-(3-(N-((4′-methoxy-3′-methyl-[1,1′-biphenyl]-4-yl)methyl)-1-(methylsulfonyl)piperidine-4-carboxamido)phenyl)acrylate]
19 | ≥ 6.00 | CCc1cc(-c2ccc(N(C)C)cc2)ccc1CN(C(=O)C1CCCCC1)c1cccc(/C=C/C(=O)OC)c1 [62.14, (E)-Methyl 3-(3-(N-((4′-(dimethylamino)-3-ethyl-[1,1′-biphenyl]-4-yl)methyl)cyclohexanecarboxamido)phenyl) acrylate]
20 | 5.00 to 6.00 | COC(=O)/C=C/c1cccc(N(Cc2ccc(-c3ccc(N(C)C)cc3)cc2)C(=O)[C@H]2CC[C@@H](S(C)(=O)=O)CC2)c1 [13.14, cis-(E)-Methyl 3-(3-(N-((4′-(dimethylamino)-[1,1′-biphenyl]-4-yl)methyl)-4-(methylsulfonyl)cyclohexanecarboxamido)phenyl)acrylate]
21 | ≥ 6.00 | COC(=O)/C=C/c1cccc(N(Cc2ccc(-c3ccc(N(C)C)cc3)cc2)C(=O)[C@H]2CC[C@H](NC(=O)OC)CC2)c1 [compound 98, (E)-Methyl 3-(3-(trans-N-((4′-(dimethylamino)-[1,1′-biphenyl]-4-yl)methyl)-4-((methoxycarbonyl)amino)cyclo-hexanecarboxamido)phenyl)acrylate]
22 | 5.00 to 6.00 | COC(=O)/C=C/c1cccc(N(Cc2ccc(-c3ccc(S(C)(=O)=O)cc3F)cc2)C(=O)C2CCCCC2)c1 [75.8, (E)-Methyl 3-(3-(N-((2′-fluoro-4′-(methylsulfonyl)-[1,1′-biphenyl]-4-yl)methyl)cyclohexanecarboxamido)phenyl) acrylate]
23 | 5.00 to 6.00 | COC(=O)/C=C/c1cccc(N(Cc2ccc(-c3cccc(CO)c3)cc2)C(=O)C2CCCCC2)c1 [62.6, (E)-Methyl 3-(3-(N-((3′-(hydroxymethyl)-[1,1′-biphenyl]-4-yl)methyl)cyclohexanecarboxamido)phenyl) acrylate]
24 | ≥ 6.00 | COC(=O)/C=C/c1cccc(N(Cc2ccc(-c3ccc(N(C)C)cc3)c(C#N)c2)C(=O)C2CCCCC2)c1 [62.11, (E)-Methyl 3-(3-(N-((2-cyano-4′-(dimethylamino)-[1,1′-biphenyl]-4-yl)methyl)cyclohexanecarboxamido)phenyl) acrylate]
25 | ≥ 6.00 | COC(=O)/C=C/c1cccc(N(Cc2ccc(-c3ccc4c(c3)c(F)nn4C)cc2)C(=O)C2CCCCC2)c1 [75.18, (E)-Methyl 3-(3-(N-(4-(3-fluoro-1-methyl-1H-indazol-5-yl)benzyl)cyclohexanecarboxamido)phenyl) acrylate]
